Experimental data: patent US6083944A, “Quinoline-containing α-ketoamide cysteine and serine protease inhibitors” (Cephalon, Inc., priority 1998, dated 2000)

Biological target: T1, Recombinant human calpain I (Homo sapiens, UniProt P07384)
T1 construct: made in house
T1 sequence (P07384 1-714): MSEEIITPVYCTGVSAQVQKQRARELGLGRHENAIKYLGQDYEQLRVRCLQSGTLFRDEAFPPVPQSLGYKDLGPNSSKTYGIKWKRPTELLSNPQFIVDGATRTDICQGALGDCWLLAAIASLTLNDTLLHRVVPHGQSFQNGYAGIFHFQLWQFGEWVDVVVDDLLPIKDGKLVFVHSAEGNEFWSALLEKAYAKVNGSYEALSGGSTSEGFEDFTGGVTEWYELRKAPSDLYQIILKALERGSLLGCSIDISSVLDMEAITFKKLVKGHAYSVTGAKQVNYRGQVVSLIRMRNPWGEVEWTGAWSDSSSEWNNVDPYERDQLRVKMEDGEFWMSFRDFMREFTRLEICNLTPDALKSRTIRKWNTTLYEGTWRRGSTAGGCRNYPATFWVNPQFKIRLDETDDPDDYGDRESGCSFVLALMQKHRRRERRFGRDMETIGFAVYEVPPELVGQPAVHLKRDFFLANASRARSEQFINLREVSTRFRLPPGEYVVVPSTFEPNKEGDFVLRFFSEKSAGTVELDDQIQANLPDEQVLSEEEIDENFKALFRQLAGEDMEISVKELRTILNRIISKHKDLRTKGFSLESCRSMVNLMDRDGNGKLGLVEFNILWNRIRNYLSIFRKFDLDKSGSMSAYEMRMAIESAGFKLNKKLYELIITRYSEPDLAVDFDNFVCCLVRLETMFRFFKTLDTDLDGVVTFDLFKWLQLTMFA
Experiment: Inhibition of calpain I (Succ-Leu-Tyr-MNA hydrolysis)
Type: biochemical
Details: for inhibition at 10 µM: values in parentheses, at 10,000 nM; for Calpain I IC50 ** (value in parentheses: % inhibition): ** explained as 10,000 nM only in footnotes to Tables 2-4
Protocol: To evaluate inhibitory activity, stock solutions (40 times concentrated) of each compound to be tested were prepared in 100% anhydrous DMSO and 5 μl of each inhibitor preparation was aliquoted into each of three wells of a 96-well plate. Recombinant human calpain I, prepared by the method of Meyer et al. (Biochem. J. 1996, 314: 511-519), was diluted into assay buffer (i.e., 50 mM Tris, 50 mM NaCl, 1 mM EDTA, 1 mM EGTA, and 5 mM β-mercaptoethanol, pH 7.5, including 0.2 mM Succ-Leu-Tyr-MNA), and 175 μl was aliquoted into the same wells containing the independent inhibitor stocks as well as to positive control wells containing 5 μl DMSO, but no compound. To start the reaction, 20 μl of 50 mM CaCl2 in assay buffer was added to all wells of the plate, excepting three, which were used as background signal baseline controls. Substrate hydrolysis was monitored every 5 minutes for a total of 30 minutes. Substrate hydrolysis in the absence of inhibitor was linear for up to 15 minutes.
Inhibition of calpain I activity was calculated as the percent decrease in the rate of substrate hydrolysis in the presence of inhibitor relative to the rate in its absence. Comparison between the inhibited and control rates was made within the linear range for substrate hydrolysis. The IC50 S of inhibitors (concentration yielding 50% inhibition) were determined from the percent decrease in rates of substrate hydrolysis in the presence of five to seven different concentrations of the test compound. The results were plotted as percent inhibition versus log inhibitor concentration, and the IC50 was calculated by fitting the data to the four-parameter logistic equation shown below using the program GraphPad Prism (GraphPad Software, Inc., San Diego, Calif.).
The parameters a, b, c, and d are defined as follows: a is % inhibition in the absence of inhibitor, b is the slope, c is the IC50, and d is the % inhibition at an infinite concentration of inhibitor.

Compound | inhibition at 10 µM (Tables 2-4) | IC50 (Tables 2-4, pH 7.5) | also measured
O=C(NCCCO)C(=O)C(Cc1ccccc1)NC(=O)c1cc(C#Cc2ccccc2)nc2ccccc12 (centres unmarked) [Example 12] | 94% | – | –
O=C(NCC1CCCO1)C(=O)C(Cc1ccccc1)NC(=O)c1cc(C#Cc2ccccc2)nc2ccccc12 (centres unmarked) [Example 54] | 84% | – | –
O=C(NCCNS(=O)(=O)c1ccccc1)C(=O)C(Cc1ccccc1)NC(=O)c1nc(-c2ccccc2)nc2ccccc12 (centres unmarked) [Example 153] | – | – | Calpain I IC50 ** (value in parentheses: % inhibition) (Table 5): 95%
O=C(NOCCNS(=O)(=O)c1ccccc1)C(=O)C(Cc1ccccc1)NC(=O)c1cc(C#Cc2ccccc2)nc2ccccc12 (centres unmarked) [Example 105] | – | 128 nM | –
CCCCC(NC(=O)c1cc(Cl)nc2ccccc12)C(=O)C(=O)NCCNS(=O)(=O)c1ccc(Cl)c(Cl)c1 (centres unmarked) [Example 151] | – | – | IC50 (Table 5, head prints no unit): 217 nM
O=C(NC(CO)Cc1ccccc1)C(=O)C(Cc1ccccc1)NC(=O)c1cc(C#Cc2ccccc2)nc2ccccc12 (centres unmarked) [Example 23] | 75% | – | –
O=C(NCCNS(=O)(=O)c1cccnc1)C(=O)C(Cc1ccccc1)NC(=O)c1cc(Cl)nc2ccccc12 (single isomer, unassigned) [Example 141] | – | 87 nM | –
COCC(NC(=O)c1cc(Cl)nc2ccccc12)C(=O)C(=O)NCCNS(=O)(=O)c1ccccc1 (centres unmarked) [Example 158] | – | – | Calpain I IC50 ** (value in parentheses: % inhibition) (Table 5): 94%
COC(CNC(=O)C(=O)C(CC(C)C)NC(=O)c1cc(C#Cc2ccccc2)nc2ccccc12)OC (centres unmarked) [Example 113] | 92% | – | –
O=C(NCCNS(=O)(=O)c1ccccc1)C(=O)C(Cc1ccccc1)NC(=O)c1cc(C#Cc2ccccc2)nc2ccccc12 (centres unmarked) [Example 95] | – | 43 nM | –
C#CCNC(=O)C(=O)C(Cc1ccccc1)NC(=O)c1cc(C#Cc2ccccc2)nc2ccccc12 (centres unmarked) [Example 1] | 91% | – | –
COc1ccc(CCNC(=O)C(=O)C(Cc2ccccc2)NC(=O)c2cc(C#Cc3ccccc3)nc3ccccc23)cc1OC (centres unmarked) [Example 41] | 88% | – | –
CC(C)CC(NC(=O)c1cc(C#Cc2ccccc2)nc2ccccc12)C(=O)C(=O)NCCCNS(=O)(=O)c1ccccc1 (centres unmarked) [Example 119] | 80% | – | –
O=C(NC1Cc2ccccc2C1)C(=O)C(Cc1ccccc1)NC(=O)c1cc(C#Cc2ccccc2)nc2ccccc12 (centres unmarked) [Example 55] | 60% | – | –
O=C(NCC1CC1)C(=O)C(Cc1ccccc1)NC(=O)c1cc(C#Cc2ccccc2)nc2ccccc12 (centres unmarked) [Example 4] | 100% | – | –
O=C(NCCc1ccccc1)C(=O)C(Cc1ccccc1)NC(=O)c1cc(C#Cc2ccccc2)nc2ccccc12 (centres unmarked) [Example 43] | – | 390 nM | –
COCCOCCCNC(=O)C(=O)C(Cc1ccccc1)NC(=O)c1cc(C#Cc2ccccc2)nc2ccccc12 (centres unmarked) [Example 8] | – | 570 nM | –
O=C(NCc1ccc2c(c1)OCO2)C(=O)C(Cc1ccccc1)NC(=O)c1cc(C#Cc2ccccc2)nc2ccccc12 (centres unmarked) [Example 33] | – | 388 nM | –
O=C(NCCNC(=O)[C@@H]1CCCN1S(=O)(=O)c1ccccc1)C(=O)C(Cc1ccccc1)NC(=O)c1cc(C#Cc2ccccc2)nc2ccccc12 (some centres unmarked) [Example 108] | 94% | – | –
O=C(NCCS(=O)(=O)Nc1ccccc1)C(=O)C(Cc1ccccc1)NC(=O)c1cc(Cl)nc2ccccc12 (centres unmarked) [Example 147] | – | 81 nM | –
CC(=O)NCCNC(=O)C(=O)C(Cc1ccccc1)NC(=O)c1cc(C#Cc2ccccc2)nc2ccccc12 (centres unmarked) [Example 60] | – | 140 nM | –
CCCC(NC(=O)c1cc(Cl)nc2ccccc12)C(=O)C(=O)NCCNS(=O)(=O)c1ccc(Cl)c(Cl)c1 (centres unmarked) [Example 152] | – | – | IC50 (Table 5, head prints no unit): 325 nM
O=C(NCCNC(=O)C(=O)C(Cc1ccccc1)NC(=O)c1cc(C#Cc2ccccc2)nc2ccccc12)Nc1ccccc1 (centres unmarked) [Example 64] | – | 67 nM | –
CN(C)S(=O)(=O)NCCNC(=O)C(=O)C(Cc1ccccc1)NC(=O)c1cc(C#Cc2ccccc2)nc2ccccc12 (centres unmarked) [Example 94] | – | 141 nM | –

Compound | inhibition at 10 µM (Tables 2-4) | IC50 (Tables 2-4, pH 7.5) | also measured
O=C(NCCNS(=O)(=O)c1ccc(-c2ccccn2)s1)C(=O)[C@H](Cc1ccccc1)NC(=O)c1cc(Cl)nc2ccccc12 [Example 144] | – | 14 nM | –
CN(C)NC(=O)C(=O)C(Cc1ccccc1)NC(=O)c1cc(C#Cc2ccccc2)nc2ccccc12 (centres unmarked) [Example 110] | 43% | – | –
O=C(NCCNS(=O)(=O)c1cccc([N+](=O)[O-])c1)C(=O)C(Cc1ccccc1)NC(=O)c1cc(C#Cc2ccccc2)nc2ccccc12 (centres unmarked) [Example 78] | 88% | – | –
O=C(NCCNS(=O)(=O)c1ccc(-c2ccccn2)s1)C(=O)C(Cc1ccccc1)NC(=O)c1cc(C2CC2)nc2ccccc12 (centres unmarked) [Example 145] | – | 71 nM | –
CC(C)CC(NC(=O)c1cc(C#Cc2ccccc2)nc2ccccc12)C(=O)C(=O)NCCNS(=O)(=O)c1ccccc1 (centres unmarked) [Example 117] | 82% | – | –
COC(CNC(=O)C(=O)C(Cc1ccccc1)NC(=O)c1cc(C#Cc2ccccc2)nc2ccccc12)OC (centres unmarked) [Example 7] | – | 110 nM | –
O=C(NCc1ccncc1)C(=O)C(Cc1ccccc1)NC(=O)c1cc(C#Cc2ccccc2)nc2ccccc12 (centres unmarked) [Example 47] | 98% | – | –
O=C(NCCNS(=O)(=O)c1cccc2nsnc12)C(=O)C(Cc1ccccc1)NC(=O)c1cc(C#Cc2ccccc2)nc2ccccc12 (centres unmarked) [Example 71] | – | 89 nM | –
O=C(NCc1cccc([N+](=O)[O-])c1)C(=O)C(Cc1ccccc1)NC(=O)c1cc(C#Cc2ccccc2)nc2ccccc12 (centres unmarked) [Example 40] | 95% | – | –
O=C(NCCNC(=O)C(=O)C(Cc1ccccc1)NC(=O)c1cc(C#Cc2ccccc2)nc2ccccc12)Nc1ccc(Br)cc1 (centres unmarked) [Example 61] | 94% | – | –
COCCNC(=O)C(=O)C(Cc1ccccc1)NC(=O)c1cc(C#Cc2ccccc2)nc2ccccc12 (centres unmarked) [Example 11] | – | 480 nM | –
CCCCNC(=O)C(=O)C(Cc1ccccc1)NC(=O)c1cc(C=Cc2ccccc2)nc2ccccc12 (centres unmarked) [Example 130] | – | 105 nM | –
O=C(NCCC1=CCCCC1)C(=O)C(Cc1ccccc1)NC(=O)c1cc(C#Cc2ccccc2)nc2ccccc12 (centres unmarked) [Example 6] | 89% | – | –
COc1ccc(C(=O)NCCNC(=O)C(=O)C(Cc2ccccc2)NC(=O)c2cc(C#Cc3ccccc3)nc3ccccc23)cc1 (centres unmarked) [Example 57] | 71% | – | –
O=C(NCCOCCO)C(=O)C(Cc1ccccc1)NC(=O)c1cc(C#Cc2ccccc2)nc2ccccc12 (centres unmarked) [Example 10] | – | 630 nM | –
O=C(NCC(F)(F)F)C(=O)C(Cc1ccccc1)NC(=O)c1cc(C#Cc2ccccc2)nc2ccccc12 (centres unmarked) [Example 2] | 98% | – | –
CC(NC(=O)C(=O)C(Cc1ccccc1)NC(=O)c1cc(C#Cc2ccccc2)nc2ccccc12)c1cccc2ccccc12 (centres unmarked) [Example 26] | 31% | – | –
O=C(NCCNS(=O)(=O)c1ccc(-c2ccccn2)s1)C(=O)C(Cc1ccccc1)NC(=O)c1cc(-c2cccs2)nc2ccccc12 (centres unmarked) [Example 146] | – | 85 nM | –
O=C(NCCNC(=O)C(=O)C(Cc1ccccc1)NC(=O)c1cc(C#Cc2ccccc2)nc2ccccc12)NC12CC3CC(CC(C3)C1)C2 (centres unmarked) [Example 63] | – | 257 nM | –
O=C(NCCCn1ccnc1)C(=O)C(Cc1ccccc1)NC(=O)c1cc(C#Cc2ccccc2)nc2ccccc12 (centres unmarked) [Example 50] | 84% | – | –
O=C(NCCNS(=O)(=O)c1ccccc1)C(=O)C(Cc1ccccc1)NC(=O)c1ccnc2ccccc12 (single isomer, unassigned) [Example 131] | 97% | – | –
O=C(NCCNS(=O)(=O)c1ccc(-c2ccccn2)s1)C(=O)C(Cc1ccccc1)NC(=O)c1nc(-c2ccccc2)nc2ccccc12 (centres unmarked) [Example 154] | – | – | IC50 (Table 5, head prints no unit): 83 nM
O=C(NCCCN1CCOCC1)C(=O)C(Cc1ccccc1)NC(=O)c1cc(C#Cc2ccccc2)nc2ccccc12 (centres unmarked) [Example 51] | – | 424 nM | –
